Blank lines part the entries; values can stand above or below the substance they belong to. Where no end group is shown, it is not given here.
Assays:
CAM de poulet = details: inhibition of angiogenesis in chicken CAM; cited from earlier work
[1] = tested on: mégacaryocytopoièse humaine; details: cited from earlier work
cellules HEL = details: prior-art comparators; cited from earlier work
[2] = tested on: mégacaryocytopoïèse in vivo; experiment: Megakaryocytopoiesis in vivo in normal mice (marrow and blood counts); details: souris Balb/c, 40 µg/kg s.c. twice daily for 4 days, sampled day 2 after last injection; mean ± SEM
Protocol: L'effet du dodécapeptide de l'exemple 1 sur la mégacaryocytopoïèse in vivo a été testé sur des souris normales selon une méthode décrite par HAN et al., dans l'article C.R. Acad. Sci. Paris, (1991), 313, Série III, 553-558 précité. Chaque groupe contient 5-10 souris Balb/c. Le peptide est injecté par voie sous-cutanée deux fois par jour pendant 4 jours aux concentrations de 1 µg et 5 µg par souris pour chaque administration. Les échantillons de moëlle et/ou de sang ont été prélevés au jour J2 qui suit la dernière injection.
Les souris ont été tuées par dislocation cervicale. Les cellules médullaires ont été obtenues à partir des fémurs et le sang a été obtenu par ponction cardiaque. Les cellules médullaires à la concentration de 2 x 10^5 cellules mononucléées par ml ont été remises en culture en cinq exemplaires en présence de sérum de porc aplasique pendant une semaine pour tester le nombre de progéniteurs mégacaryocytaires (CFU-MK). Le nombre des mégacaryocytes a été évalué sur des cellules médullaires non cultivées mais ensemencées dans des boîtes de culture après obtention à partir des fémurs. Le nombre de plaquettes, de globules blancs et le taux d'hémoglobine ont été mesurés en utilisant un compteur hématopoiétique automatique. […]

Substance: C-41: peptide constitué par les 41 derniers aminoacides (i.e. 30-70) de l'extrémité C-terminale du pF4 (IKAGPHCPTAQLIATLKNGRKICLDLQAPLYKKIIKKLLES; Platelet factor 4; UniProt P02776 61-101, looked up, fragment)
- anti-angiogénèse (CAM de poulet): propriétés anti-angiogénèse

Substance: C-24: peptide constitué par les 24 derniers aminoacides (i.e. 47-70) de l'extrémité C-terminale du pF4 (NGRKICLDLQAPLYKKIIKKLLES; Platelet factor 4; UniProt P02776 78-101, looked up, fragment)
- dose inhibiting mégacaryocytopoièse humaine in vitro ([1]; relatively high dose): ~25 µg/mL
- maturation des cellules HEL (cellules HEL): limitent la maturation
- prolifération des cellules HEL (cellules HEL): n'agissent pas sur leur prolifération

Substance: C-13: peptide constitué par les 13 derniers aminoacides (i.e. 58-70) de l'extrémité C-terminale du pF4 (PLYKKIIKKLLES; Platelet factor 4; UniProt P02776 89-101, looked up, fragment)
- effet sur la mégacaryocytopoïèse ([1]; in vitro): aucun effet
- anti-angiogénèse (CAM de poulet): propriétés anti-angiogénèse

- Sang H (hémoglobine) [2]: 15,2±0,8 g/100 ml
- Sang L (leucocytes) [2]: 2,80±0,4 10^3/µl
Substance: NGRKICLDLEAP [exemple 1]
